Results reported in patent US20250108038A1 (priority 2023, published 2025).
Values joined by “and” are separate entries in the source; they are usually repeats but may differ in a detail not shown here. Equal values may be shown once. “Also recorded” adds a separate entry of the source. Read-outs that look alike come from different tables or passages of the source.

Columns and labels:
OATP1B1 = molecular target: T1, OATP1B1 (Homo sapiens, UniProt Q9Y6L6); assay: Uptake transporter inhibition assay, OATP1B1 (estradiol-17-β-glucuronide); settings: for Relative transporter specific accumulation: E217βG, Table 119
T1 sequence (Q9Y6L6 1-691): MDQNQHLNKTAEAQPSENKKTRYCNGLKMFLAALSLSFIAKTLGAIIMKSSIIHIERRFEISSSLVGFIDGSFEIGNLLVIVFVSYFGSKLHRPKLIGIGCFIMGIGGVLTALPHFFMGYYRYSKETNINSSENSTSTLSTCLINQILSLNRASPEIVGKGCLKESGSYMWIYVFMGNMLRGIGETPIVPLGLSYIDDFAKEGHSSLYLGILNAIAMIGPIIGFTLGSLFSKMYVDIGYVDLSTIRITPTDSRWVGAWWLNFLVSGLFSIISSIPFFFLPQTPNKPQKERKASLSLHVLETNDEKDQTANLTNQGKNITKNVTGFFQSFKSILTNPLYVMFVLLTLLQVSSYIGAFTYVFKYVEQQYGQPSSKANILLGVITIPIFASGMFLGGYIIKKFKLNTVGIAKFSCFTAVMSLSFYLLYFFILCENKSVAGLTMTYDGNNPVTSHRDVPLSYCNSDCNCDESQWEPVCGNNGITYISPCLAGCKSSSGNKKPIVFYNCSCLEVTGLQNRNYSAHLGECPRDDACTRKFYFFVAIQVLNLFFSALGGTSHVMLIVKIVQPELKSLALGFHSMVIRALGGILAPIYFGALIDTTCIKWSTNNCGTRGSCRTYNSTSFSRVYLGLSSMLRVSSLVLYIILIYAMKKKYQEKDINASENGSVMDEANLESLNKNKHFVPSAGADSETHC
Description: Uptake experiments were performed using HEK293 cells stably expressing the respective uptake transporters. The assays were conducted according to the actual SOLVO uptake transporter assay protocols (PR-ASY-UPT-General Protocol for Uptake Transporter Inhibition Assays).
Cells were cultured at 37° C. in a humidified atmosphere containing 5% CO2 and were plated onto standard 96-well tissue culture plates.
Before the experiment, the medium was removed, and the cells were washed twice with 100 μL of pre-warmed (37° C.) assay buffer listed in Table 15. The cells were pre-incubated at 37° C. for 30 minutes in assay buffer containing the test article at appropriate concentrations (Table 16), appropriate solvents for solvent controls and the reference inhibitor for reference inhibitor wells. After the pre-incubation step solutions were removed. Uptake experiments were performed at 37° C. in 50 μL of assay buffer containing the probe substrate and the test article or solvent and controls.
After the experiment, cells were washed twice with 100 μL of appropriate cold buffer and lysed with 150 μL scintillation cocktail. Radiolabeled probe substrate transport was determined by liquid scintillation counting.
Uptake of the probe substrate in control cells provided background activity values for all data points.

[1] = Description: Twelve male Wistar Han rats were divided into 4 groups, n=3 per group.
Dose solutions were prepared freshly on the day of study prior to dosing.
The animals were weighed immediately prior to dosing and the dose volume was calculated individually based the obtained body weight and the nominal dose volume. […] The test articles were administered either orally by gavage, or intraperitoneally by injection. The nominal dose volume was 10 mL/kg for both compounds and both routes.
Cage side observation was performed before and after dosing as well as at each scheduled sample collection. The observation included appearance, posture, behavior, morbidity and mortality. Abnormal findings, if any, were recorded in the study notebook and communicated with study director, veterinarian, and Supernus if necessary.
Approximately 100 μL blood was collected at each scheduled time point from jugular veins. The actual sample collection time was within 1 min. of the nominal time for collections prior to or at 1 hour, and within 5% of the nominal time for collections post 1 hour.
The blood samples were placed in pre-labeled micro-centrifuge tubes containing K2EDTA as anticoagulant and kept on ice, and then were processed to plasma within 30 minutes of collection by centrifugation at 4° C., 3000 g for 5 minutes, and then stored at −70±10° C. until analysis by LC-MS/MS.
Plasma concentrations below the LLOQ prior to Tmax were set to zero, and those after Tmax were excluded from PK calculation. The nominal dose and the nominal sample collection time were used for the calculation. The values of plasma concentrations and PK parameters are reported to three significant figures. The average values of each treatment group are presented as mean±SD.

[2] = single IP Compound I-4 3.708 mg/kg, male Wistar Han rats, individual animals
[3] = single IP Compound I-4 3.708 mg/kg, male Wistar Han rats, mean
[4] = single PO Compound I-4 3.708 mg/kg, male Wistar Han rats, individual animals
[5] = single PO Compound I-4 3.708 mg/kg, male Wistar Han rats, mean

SMILES: OC1(c2ccc(Cl)cc2)c2ccccc2C2=NCCN21 (stereo not shown) [Compound A, 5-(4-chlorophenyl)-2,3-dihydroimidazo[1,2-b]isoindol-5-ol, reference compound]
- Relative transporter specific accumulation (OATP1B1; 3.00 μM nominal): 96.77 ± 2.48 % of control
- Relative transporter specific accumulation (OATP1B1; 30.00 μM nominal): 94.38 ± 2.14 % of control
- maximum inhibition of OATP1B1-mediated E217βG accumulation (OATP1B1; 2-concentration assay, up to 100 μM (Compound A up to 30 μM)): did not inhibit; also recorded: not an in vitro inhibitor
- Maximum % inhibition (OATP1B1; OATP1B1, HEK293 cells, E217βG (1 μM), NIO: no inhibition observed): NIO
- inhibition at 3 μM (OATP1B1; human): 3%
- inhibition at 30 μM (OATP1B1; human): 6%

SMILES: COCCOC1(c2ccc(Cl)cc2)c2ccccc2C2=NCCN21 (stereo not shown) [Compound I-4]
- plasma concentration of Compound I-4 ([1]; 0.500 h, single IP Compound I-4 3.708 mg/kg, male Wistar Han rats, individual animals): 0.0903 µg/mL and 0.0484 µg/mL and 0.115 µg/mL
- plasma concentration of Compound I-4 ([1]; 0.500 h, single IP Compound I-4 3.708 mg/kg, male Wistar Han rats, mean): 0.0846 µg/mL
- plasma concentration of Compound I-4 ([1]; 0.500 h, single PO Compound I-4 3.708 mg/kg, male Wistar Han rats, mean): 0.00901 µg/mL
- plasma concentration of Compound I-4 ([1]; 2.00 h, single IP Compound I-4 3.708 mg/kg, male Wistar Han rats, individual animals): 0.0967 µg/mL and 0.0857 µg/mL and 0.119 µg/mL
- plasma concentration of Compound I-4 ([1]; 2.00 h, single IP Compound I-4 3.708 mg/kg, male Wistar Han rats, mean): 0.1 µg/mL
- plasma concentration of Compound I-4 ([1]; 2.00 h, single PO Compound I-4 3.708 mg/kg, male Wistar Han rats, mean): 0.00606 µg/mL
- plasma concentration of Compound I-4 ([1]; 4.00 h, single IP Compound I-4 3.708 mg/kg, male Wistar Han rats, individual animals): 0.0546 µg/mL and 0.0986 µg/mL and 0.0611 µg/mL
- plasma concentration of Compound I-4 ([1]; 4.00 h, single IP Compound I-4 3.708 mg/kg, male Wistar Han rats, mean): 0.0714 µg/mL
- plasma concentration of Compound I-4 ([1]; 4.00 h, single PO Compound I-4 3.708 mg/kg, male Wistar Han rats, mean): 0.00275 µg/mL
- plasma concentration of Compound I-4 ([1]; 8.00 h, single IP Compound I-4 3.708 mg/kg, male Wistar Han rats, mean): 0.0317 µg/mL
- plasma concentration of Compound I-4 ([1]; 8.00 h, single PO Compound I-4 3.708 mg/kg, male Wistar Han rats, individual animals): 0.0014 µg/mL and 0.00111 µg/mL and 0.00153 µg/mL
- plasma concentration of Compound I-4 ([1]; 8.00 h, single PO Compound I-4 3.708 mg/kg, male Wistar Han rats, mean): 0.00135 µg/mL
- plasma concentration of Compound I-4 ([1]; 24.0 h, single IP Compound I-4 3.708 mg/kg, male Wistar Han rats, individual animals): BQL
- plasma concentration of Compound I-4 ([1]; 24.0 h, single PO Compound I-4 3.708 mg/kg, male Wistar Han rats, individual animals): BQL
- plasma concentration of Compound I-4 ([1]; […] h, single IP Compound I-4 3.708 mg/kg, male Wistar Han rats, mean): 0.0955 µg/mL
- plasma concentration of Compound I-4 ([1]; […] h, single PO Compound I-4 3.708 mg/kg, male Wistar Han rats, mean): 0.00698 µg/mL
- Clinical observation (tolerability) ([1]; male Wistar Han rats, PO and IP, administered dosages): well tolerated
- T1/2 of the administered compound ([1]; rat, in vivo, ip): 2.51 h
- AUC0-inf of Compound I-4 [1, 2]: 0.567 µg·h/mL and 0.597 µg·h/mL
- AUC0-last of Compound I-4 [1, 2]: 0.473 µg·h/mL and 0.599 µg·h/mL and 0.546 µg·h/mL
- Cmax of Compound I-4 [1, 2]: 0.12 µg/mL and 0.0986 µg/mL and 0.14 µg/mL
- MRT0-inf of Compound I-4 [1, 2]: 4.58 h and 3.48 h
- MRT0-last of Compound I-4 [1, 2]: 3.06 h and 4.10 h and 2.77 h
- T1/2 of Compound I-4 [1, 2]: 2.90 h and 2.12 h
- Tlast of Compound I-4 [1, 2]: 8.00 h
- AUC0-inf of Compound I-4 [1, 3]: 0.582 µg·h/mL
- AUC0-last of Compound I-4 [1, 3]: 0.539 µg·h/mL
- Cmax of Compound I-4 [1, 3]: 0.12 µg/mL
- MRT0-inf of Compound I-4 [1, 3]: 4.03 h
- MRT0-last of Compound I-4 [1, 3]: 3.31 h
- T1/2 of Compound I-4 [1, 3]: 2.51 h
- Tlast of Compound I-4 [1, 3]: 8.00 h
- Tmax of Compound I-4 [1, 3]: 1.50 h
- AUC0-inf of Compound I-4 [1, 4]: 0.0564 µg·h/mL
- MRT0-inf of Compound I-4 [1, 4]: 2.61 h
- MRT0-last of Compound I-4 [1, 4]: 3.86 h and 2.20 h and 4.46 h
- T1/2 of Compound I-4 [1, 4]: 1.74 h
- Tlast of Compound I-4 [1, 4]: 8.00 h
- AUC0-last of Compound I-4 [1, 5]: 0.0252 µg·h/mL
- Cmax of Compound I-4 [1, 5]: 0.00918 µg/mL
- MRT0-last of Compound I-4 [1, 5]: 3.51 h
- Tlast of Compound I-4 [1, 5]: 8.00 h
- Tmax of Compound I-4 [1, 5]: 1.67 h
